The target in assay [1] is T1, Prostaglandin G/H synthase 2 (Mus musculus, UniProt Q05769).
T1 sequence (Q05769 whole entry): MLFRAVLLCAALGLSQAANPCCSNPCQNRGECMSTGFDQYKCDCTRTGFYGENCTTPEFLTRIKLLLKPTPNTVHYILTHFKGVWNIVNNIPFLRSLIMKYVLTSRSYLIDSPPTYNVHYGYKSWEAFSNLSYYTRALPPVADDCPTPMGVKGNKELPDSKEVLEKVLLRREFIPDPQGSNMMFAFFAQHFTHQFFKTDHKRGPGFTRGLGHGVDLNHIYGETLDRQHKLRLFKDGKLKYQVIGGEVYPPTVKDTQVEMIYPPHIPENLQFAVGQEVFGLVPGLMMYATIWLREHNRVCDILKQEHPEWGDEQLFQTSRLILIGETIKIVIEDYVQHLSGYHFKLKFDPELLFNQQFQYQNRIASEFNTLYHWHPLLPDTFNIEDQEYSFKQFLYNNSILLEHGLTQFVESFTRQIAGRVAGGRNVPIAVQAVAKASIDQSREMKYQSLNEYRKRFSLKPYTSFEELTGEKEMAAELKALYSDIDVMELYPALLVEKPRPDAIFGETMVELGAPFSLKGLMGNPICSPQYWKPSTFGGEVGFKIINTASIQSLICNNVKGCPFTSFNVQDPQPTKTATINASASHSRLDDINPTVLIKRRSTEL
Kind of assay: Inhibition of COX2 in mouse LPS-stimulated RAW264.7 cells after 30 mins. Type of assay: cell-based.

Assay [2] concerns the target T2, Prostaglandin G/H synthase 1 (Ovis aries, UniProt P05979).
T2 sequence (P05979 whole entry): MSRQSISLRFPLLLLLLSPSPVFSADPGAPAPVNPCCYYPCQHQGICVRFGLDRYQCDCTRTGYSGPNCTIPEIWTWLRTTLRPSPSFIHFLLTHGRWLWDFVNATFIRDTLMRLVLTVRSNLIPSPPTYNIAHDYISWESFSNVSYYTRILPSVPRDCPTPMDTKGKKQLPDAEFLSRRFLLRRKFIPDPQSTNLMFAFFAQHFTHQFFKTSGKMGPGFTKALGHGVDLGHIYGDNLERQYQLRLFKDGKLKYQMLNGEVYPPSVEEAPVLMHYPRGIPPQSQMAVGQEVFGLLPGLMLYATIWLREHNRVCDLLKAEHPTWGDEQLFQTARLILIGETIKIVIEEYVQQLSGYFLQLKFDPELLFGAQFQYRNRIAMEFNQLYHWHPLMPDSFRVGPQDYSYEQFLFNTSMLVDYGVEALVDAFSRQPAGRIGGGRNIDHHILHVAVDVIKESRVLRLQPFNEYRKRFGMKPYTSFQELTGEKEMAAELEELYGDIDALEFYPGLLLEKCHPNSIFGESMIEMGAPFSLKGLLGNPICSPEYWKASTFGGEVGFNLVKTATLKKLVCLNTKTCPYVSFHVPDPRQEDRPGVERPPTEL
Kind of assay: Inhibition of ovine purified COX1 after 20 mins.

Assay [3] addresses T3, Prostaglandin G/H synthase 1 (Mus musculus) (UniProt P22437).
T3 sequence (whole entry): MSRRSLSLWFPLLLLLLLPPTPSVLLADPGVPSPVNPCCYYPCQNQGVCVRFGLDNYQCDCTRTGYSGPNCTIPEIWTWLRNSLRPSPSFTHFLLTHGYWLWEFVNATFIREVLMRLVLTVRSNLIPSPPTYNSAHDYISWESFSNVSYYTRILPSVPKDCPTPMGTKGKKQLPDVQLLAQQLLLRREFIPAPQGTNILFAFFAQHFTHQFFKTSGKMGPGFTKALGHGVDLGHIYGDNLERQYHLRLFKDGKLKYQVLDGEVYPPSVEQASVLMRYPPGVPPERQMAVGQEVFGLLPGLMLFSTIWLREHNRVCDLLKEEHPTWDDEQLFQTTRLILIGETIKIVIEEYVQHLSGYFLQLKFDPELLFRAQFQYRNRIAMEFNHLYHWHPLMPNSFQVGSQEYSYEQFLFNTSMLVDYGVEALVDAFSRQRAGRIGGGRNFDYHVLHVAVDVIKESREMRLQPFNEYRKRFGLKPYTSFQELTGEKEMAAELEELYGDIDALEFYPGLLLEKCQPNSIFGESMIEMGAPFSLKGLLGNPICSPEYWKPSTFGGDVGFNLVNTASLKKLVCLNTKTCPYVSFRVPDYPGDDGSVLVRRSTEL
The assay is described as follows: Inhibition of COX1 in mouse LPS-stimulated RAW264.7 cells at up to 5 uM after 30 mins. Type of assay: cell-based.

The source made the active and inactive calls. The rule behind the calls is not given here.

For orientation: IC50 means the midpoint of a concentration-inhibition curve. A low value points to greater potency. As to `CS(=O)(=O)c1ccc(-n2nc(C(F)(F)F)cc2-c2ccc(I)cc2)cc1`, the IC50 in assay [1] was 0.03 µM; in assay [2] it was over 4 µM. Further, the inhibition entry in assay [3] was “inactive”.

Take `COC(=O)c1cc(-c2cccc(I)c2)n(-c2ccc(S(C)(=O)=O)cc2)n1`: the IC50 in assay [2] is over 4 µM.

Regarding `CCOC(=O)c1cc(-c2ccc(I)cc2)n(-c2ccc(S(N)(=O)=O)cc2)n1`, the values for the IC50 in assay [1] and in assay [2] were 2.7 µM and over 4 µM, respectively.

As to `NS(=O)(=O)c1ccc(-n2nc(CCC(=O)O)cc2-c2cccc(I)c2)cc1`, the IC50 in assay [2] was over 4 µM.

On to `NS(=O)(=O)c1ccc(-n2nc(CCC(=O)O)cc2-c2ccc(I)cc2)cc1`, for which the IC50 in assay [2] was over 4 µM.

For `COC(=O)c1cc(-c2ccc(I)cc2)n(-c2ccc(S(N)(=O)=O)cc2)n1`, the concentration for half-maximal inhibition (IC50) in assay [2] was over 4 µM.

In turn, `COC(=O)c1cc(-c2ccc(I)cc2)n(-c2ccc(S(C)(=O)=O)cc2)n1` showed an IC50 in assay [2] of over 4 µM.

With `CS(=O)(=O)c1ccc(-n2nc(C(F)(F)F)cc2-c2cccc(I)c2)cc1`, in assay [2], the IC50 is over 4 µM.

On to `COC(=O)c1cc(-c2cccc(I)c2)n(-c2ccc(S(N)(=O)=O)cc2)n1`, for which the half-maximal inhibitory concentration (IC50) in assay [2] is over 4 µM.

Source of the values: ChEMBL document CHEMBL1671837, “[I]-Celecoxib Analogues as SPECT Tracers of Cyclooxygenase-2 in Inflammation” (ACS Med Chem Lett, 2011).
